According to patent US20200179487A1, “METHODS OF DIAGNOSIS AND TREATMENT OF PRE-ECLAMPSIA” (AGENCY FOR SCIENCE, TECHNOLOGY AND RESEARCH, priority 2016, published 2020):

Tested on: APJ-expressing primary allantoic cultures
Assay: Allantoic explants treated with ligands, digital droplet PCR of gene expression
Type: cell-based, mouse
Conditions: 2.5 μM, 12 hours, ddPCR, ELA versus APLN
Procedure: Allantoic explants were microdissected from 4-5 somite stage embryos on the morning of the 8th day of conception in dissection medium (DMEM+Hepes+7.5% FCS), and cultured in DMEM+NaHCO3+50% rat serum, on poly-L-lysine coated microwells (Ibidi). […] 12 hours later, the explants were harvested by direct lysis and RNA extracted with the Nucleospin RNA XS kit (Machery Nagel). cDNA was made using the SMARTer® Pico PCR cDNA Synthesis Kit (Clontech) and gene quantitation was performed using digital droplet PCR (Biorad) with EvaGreen and PrimeTime probes listed below: […]

## APLN: APLN-36 (Sigma); Apelin, the alternate ligand for APJ (LVQPRGSRNGPGPWQGGRRKFRRQRPRLSHKGPMPF; Apelin-36; UniProt Q9ULZ1 42-77, looked up)
Foxoa3 and Hif3α
  expression of hypoxic response genes: opposite effects
  expression of Esm1: opposite effects
